{"source": "paper PMC11079064", "about": "“Discovery of a brain penetrant small molecule antagonist targeting LPA1 receptors to reduce neuroinflammation and promote remyelination in multiple sclerosis” (Scientific Reports, 2024)", "key": {"human LPA1": {"molecular_target": "T1, human LPA1 (Homo sapiens, UniProt Q92633)", "T1 construct": "expressed in transfected cells", "T1 sequence (Q92633 whole entry)": "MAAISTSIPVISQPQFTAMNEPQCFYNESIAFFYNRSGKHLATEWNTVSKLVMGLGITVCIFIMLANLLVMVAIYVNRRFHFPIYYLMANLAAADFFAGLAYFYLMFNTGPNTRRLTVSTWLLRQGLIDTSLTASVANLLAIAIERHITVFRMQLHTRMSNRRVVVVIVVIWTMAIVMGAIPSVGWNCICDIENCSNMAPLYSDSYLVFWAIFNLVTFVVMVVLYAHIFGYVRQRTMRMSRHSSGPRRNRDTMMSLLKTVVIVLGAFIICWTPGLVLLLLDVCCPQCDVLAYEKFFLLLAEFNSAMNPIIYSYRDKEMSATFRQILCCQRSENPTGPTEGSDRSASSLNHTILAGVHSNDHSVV", "test": "Competitive membrane filter radioligand binding assay", "settings": "membranes from cells overexpressing human LPA1, LPA1 selective radioligand", "experimental": "Binding assay: Membranes were prepared from B103 cells stably expressing human LPA1 receptor. Cells were resuspended in a hypotonic buffer containing 0.25 M sucrose/0.2 mM EDTA. After 30 min on ice, cells were centrifuged at 41,415 × g. Membrane pellet was resuspended in 20 mM HEPES, pH 7.4 storage buffer and centrifuged at 41,415 × g. Membranes were resuspended in storage buffer + 1 mM dithiothreitol. Protein was quantified using the DC Protein Assay (Bio-Rad, Hercules, CA), aliquoted, and stored at – 80 °C until assay. A tritiated LPA1 selective antagonist[10] was used as radiolabeled ligand. […] The plates were shaken at 300 rpm for 2 h at room temperature. GF/B plates assay filter plates (Perkin Elmer, Boston, MA, Waltham, MA) were prepared by adding 50 µl of 0.5% polyethylenimine (Millipore Sigma, St. Louis, MO) and incubated at room temperature for > 30 min. The assay was terminated by vacuum filtration (Brandel Harvester). Plates were washed 3 × with 2 ml ice cold buffer containing 50 mM HEPES + 100 mM NaCl + 2 mM EDTA, pH 7.4. Once dry, 50 µl of Betaplate Scintillation Cocktail (Perkin Elmer, Boston, MA) was added to each well. After a 20 min incubation, plates were read on the Perkin Elmer TopCount."}, "[1]": {"test_system": "human brain meningeal fibroblasts", "test": "LPA-induced activation of human meningeal fibroblasts (COL1+ area)", "format": "cell-based", "settings": "LPA stimulation, read-out: IC50 of inhibition of increase in COL1+ area", "description": "Recent work from Dorrier et al., has implicated persistent fibrotic scarring in the CNS in the mouse EAE model and that the contributing cells were of meningeal origin. […] We cultured primary rat or human brain meningeal fibroblasts and applied 10 µM LPA to induce activation. Upon LPA stimulation, we saw a change in morphology that could be quantified as a change in collagen I (COL1^+) area.\nMeningeal fibroblasts were obtained from IxCells (San Diego, CA) and plated at 5000 cells per well according to manufacturer's protocol. […] Cells were stained and imaged as described with rat meningeal fibroblasts.\nSupplemental Figure 8. […] A. Rat primary meningeal fibroblasts were isolated and serum starved overnight. […] Cells were fixed and immunostained with a collagen 1a1 antibody (green) and counterstained with Hoechst (blue). […] Cells were fixed and immunostained with a collagen I antibody (green) and counterstained with Hoechst (blue). […] C. […] Collagen 1a1 (green), Hoechst (blue). Scale bar 50 µm. One-way ANOVA with Dunnett’s; * p<0.05, ** p<0.01, *** p<0.001, **** p<0.0001."}, "[2]": {"test_system": "off-target panel (SAFETYscan E/IC50 ELECT)", "test": "Eurofins off-target panel (SAFETYscan E/IC50 ELECT)", "settings": "test concentration 30 µM", "source_text": "Supplemental Figure 1. Results from Eurofins SAFETYscan E/IC50 ELECT."}}}
{"smiles": "COc1ccc(NC(=O)N(c2ccccc2C(C)C)C2CCC(C(=O)O)CC2)c(OC(F)F)n1", "note": "(stereo not drawn) [PIPE-791]", "values": [{"measurement": "IC50", "setting": "human LPA1", "result": 2.63, "unit": "nM"}, {"measurement": "IC50", "setting": "[1]", "result": 4.5, "unit": "nM"}, {"measurement": "off-target activities", "setting": "[2]", "result": "no appreciable activities"}]}
